Measurements reported in US20120052175A1 (priority 2010, published 2012).

Assay: Moisture sensitivity test: hydrolytic degradation of isothiocyanate in aqueous phosphate buffer
Format: physicochemical
Settings: white mustard essential oil (about 25% 4-HBITC) suspended in aqueous phosphate buffer pH about 3.6, about 20-23° C., about 24 hours
Protocol: Supercritical fluid chromatography can be used to determine the amount of 4-hydroxybenzyl isothiocyanate in a preservative composition. First an accurately weighed amount of the preservative composition is either dissolved in a compatible solvent such as ethyl acetate or ethyl acetate and ethanol mixtures or solid preservative compositions are extracted repeatedly with ethyl acetate.
These solutions are analyzed by supercritical fluid chromatography using the method described by Buskov, S. et al., “Supercritical fluid chromatography as a method of analysis for the determination of 4-hydroxybenzylglucosinolate degradation products,” Journal of Biochemical and Biophysical Methods, Vol. 43, pp 157-174 (2000) with the following modifications. A Berger SFC 3D system equipped with a photodiode array detector (Berger Instruments Inc., Newark, Del.) is used for the analysis. […] The eluate is detected at 226 and 252 nm. […]
Moisture sensitive isothiocyanate compounds are identified by suspending the isothiocyanate containing material in an aqueous phosphate buffer (pH of about 3.6) at room temperature. […] The extraction procedure is repeated after 24 hours and the level of residual isothiocyanate compound is measured by supercritical fluid chromatography. […]

## Oc1ccc(CN=C=S)cc1 [4-hydroxybenzyl isothiocyanate]
  percent reduction in level of 4-hydroxybenzyl isothiocyanate after 24 hours: about 72%
